Patent publication US9051317B2, “Azaindoles as respiratory syncytial virus antiviral agents” (JANSSEN SCIENCES IRELAND UC, priority 2010, dated 2015)
Like-named read-outs stand apart in the source and are kept apart here.

Columns and labels:
rgRSV224 virus = test: microbe, parasite or virus in culture; assay type: cell-based, respiratory syncytial virus (RSV); details: for EC50: read-out: WT activity EC50; for SI CC50/EC50: selectivity index, CC50 (HeLa cytotoxicity) / EC50 (rgRSV224)
Description: (§1) Black 96-well clear-bottom microtiter plates (Corning, Amsterdam, The Netherlands) were filled in duplicate using a customized robot system with serial 4-fold dilutions of compound in a final volume of 50 μl culture medium [RPMI medium without phenol red, 10% FBS, 0.04% gentamycin (50 mg/mL) and 0.5% DMSO]. Then, 100 μl of a HeLa cell suspension (5×10^4 cells/mL) in culture medium was added to each well followed by the addition of 50 μl rgRSV224 (MOI=0.02) virus in culture medium using a multidrop dispenser (Thermo Scientific, Erembodegem, Belgium). rgRSV224 virus is an engineered virus that includes an additional GFP gene (Hallak et al, 2000) and was in-licensed from the NIH (Bethesda, Md., USA). Medium, virus- and mock-infected controls were included in each test. Cells were incubated at 37° C. in a 5% CO2 atmosphere. Three days post-virus exposure, viral replication was quantified by measuring GFP expression in the cells by a MSM laser microscope (Tibotec, Beerse, Belgium). The EC50 was defined as the 50% inhibitory concentration for GFP expression. In parallel, compounds were incubated for three days in a set of white 96-well microtitier plates (Corning) and the cytotoxicity of compounds in HeLa cells was determined by measuring the ATP content of the cells using the ATPlite kit (PerkinElmer, Zaventem, Belgium) according to the manufacturer's instructions. The CC50 was defined as the 50% concentration for cytotoxicity.

[1] = Cytotoxicity in HeLa cells, ATP content (ATPlite kit); assay type: cell-based; details: human, Table 1, three days incubation, read-out: Toxicity CC50
Description: as §1

[2] = human respiratory syncytial virus, HeLa, 72 h
[3] = Table 2, rgRSV224 in HeLa cells, MOI 0.02, three days post-virus exposure, GFP expression

Compound: O=c1n(Cc2cc3cnccc3n2CCCCO)c2cnccc2n1C1CC1 [Compound P1, 1-Cyclopropyl-3-{[1-(4-hydroxybutyl)-1H-pyrrolo[3,2-c]pyridin-2-yl]methyl}-1,3-dihydro-2H-imidazo[4,5-c]pyridin-2-one]
- EC50 (rgRSV224 virus; [2]): 1.05 nM
- CC50 at 3 days [1]: > 98400 nM

Compound: O=c1n(Cc2cc3cc(Cl)ncc3n2CCCCF)c2cnccc2n1C1CC1 [Compound P11, 3-((5-chloro-1-(4-fluorobutyl)-1H-pyrrolo[2,3-c]pyridin-2-yl)methyl)-1-cyclopropyl-1H-imidazo[4,5-c]pyridin-2(3H)-one]
- SI CC50/EC50 (rgRSV224 virus; Table 2): >9387
- EC50 (rgRSV224 virus; [2]): 5.33 nM

Compound: O=c1n(Cc2cc3cc(Cl)ncc3n2CCCC(F)(F)F)c2cnccc2n1C1CC1 [Compound P12]
- EC50 (rgRSV224 virus; [3]): 2.38 nM
- SI CC50/EC50 (rgRSV224 virus; Table 2): >10526

Compound: O=c1n(Cc2cc3cc(Cl)ncc3n2CCCC(F)(F)F)c2cnccc2n1CC(F)(F)F [Compound P13]
- EC50 (rgRSV224 virus; [3]): 0.938 nM
- SI CC50/EC50 (rgRSV224 virus; Table 2): >106591

Compound: O=c1n(Cc2cc3cc(Cl)ncc3n2CCCC(F)(F)F)c2cc(F)ccc2n1CC(F)(F)F [Compound P14]
- EC50 (rgRSV224 virus; [3]): 17.2 nM
- SI CC50/EC50 (rgRSV224 virus; Table 2): >5823

Compound: O=c1n(Cc2cc3cc(Cl)ncc3n2CCCCF)c2cnccc2n1CC(F)(F)F [Compound P15]
- EC50 (rgRSV224 virus; [3]): 1.58 nM
- SI CC50/EC50 (rgRSV224 virus; Table 2): 51626

Compound: O=c1n(Cc2cc3cc(Cl)ncc3n2CCCC(F)(F)F)c2cc(F)ccc2n1C1CC1 [Compound P16]
- EC50 (rgRSV224 virus; [3]): 39.8 nM
- SI CC50/EC50 (rgRSV224 virus; Table 2): >2730

Compound: CS(=O)(=O)CCCn1c(Cn2c(=O)n(C3CC3)c3ccncc32)cc2cnccc21 [Compound P18]
- EC50 (rgRSV224 virus; [3]): 0.98 nM
- SI CC50/EC50 (rgRSV224 virus; Table 2): >102089

Compound: O=c1n(Cc2cc3cnccc3n2CCCCF)c2cnccc2n1C1CC1 [Compound P19]
- EC50 (rgRSV224 virus; [3]): 0.536 nM
- SI CC50/EC50 (rgRSV224 virus; Table 2): >186574

Compound: CC(C)CCn1c(Cn2c(=O)n(C3CC3)c3ccncc32)cc2cnccc21 [Compound P20]
- EC50 (rgRSV224 virus; [3]): 0.28 nM
- SI CC50/EC50 (rgRSV224 virus; Table 2): 294002

Compound: O=c1n(Cc2cc3cnccc3n2CCCC(F)(F)F)c2cnccc2n1C1CC1 [Compound P21]
- EC50 (rgRSV224 virus; [3]): 0.247 nM
- SI CC50/EC50 (rgRSV224 virus; Table 2): >405210

Compound: O=c1n(Cc2c(Cl)c3cnccc3n2CCCC(F)(F)F)c2cnccc2n1C1CC1 [Compound P22]
- EC50 (rgRSV224 virus; [3]): 5 nM
- SI CC50/EC50 (rgRSV224 virus; Table 2): >20007

Compound: O=c1n(Cc2c(F)c3cnccc3n2CCCC(F)(F)F)c2cnccc2n1C1CC1 [Compound P23]
- EC50 (rgRSV224 virus; [3]): 29.3 nM
- SI CC50/EC50 (rgRSV224 virus; Table 2): >3416

Compound: O=c1n(Cc2cc3cnccc3n2CCCC(F)(F)F)c2c(F)nccc2n1C1CC1 [Compound P24]
- SI CC50/EC50 (rgRSV224 virus; Table 3): >589061
- EC50 (rgRSV224 virus; [2]): 0.17 nM

Compound: Cc1c(Cn2c(=O)n(C3CC3)c3ccncc32)n(CCCC(F)(F)F)c2ccncc12 [Compound P25]
- EC50 (rgRSV224 virus; [3]): 1.35 nM
- SI CC50/EC50 (rgRSV224 virus; Table 2): >73885

Compound: O=c1n(Cc2c(I)c3cnccc3n2CCCC(F)(F)F)c2cnccc2n1C1CC1 [Compound P26]
- EC50 (rgRSV224 virus; [3]): 2.35 nM
- SI CC50/EC50 (rgRSV224 virus; Table 2): 21638

Compound: CS(=O)(=O)CCCn1c(Cn2c(=O)n(CC(F)(F)F)c3ccc(F)cc32)c(Br)c2cnccc21 [Compound P29]
- EC50 (rgRSV224 virus; [3]): 63.5 nM
- SI CC50/EC50 (rgRSV224 virus; Table 2): 307

Compound: CS(=O)(=O)CCCn1c(Cn2c(=O)n(CC(F)(F)F)c3ccc(F)cc32)cc2cnccc21 [Compound P30]
- EC50 (rgRSV224 virus; [3]): 0.614 nM
- SI CC50/EC50 (rgRSV224 virus; Table 2): >162986

Compound: CC(C)CCn1c(Cn2c(=O)n(C3CC3)c3ccncc32)cc2nc(Cl)ccc21 [Compound P32]
- EC50 (rgRSV224 virus; [3]): 7.77 nM
- SI CC50/EC50 (rgRSV224 virus; Table 2): >1286

Compound: CS(=O)(=O)CCCn1c(Cn2c(=O)n(C3CC3)c3ccncc32)cc2nc(Cl)ccc21 [Compound P33]
- EC50 (rgRSV224 virus; [3]): 5.76 nM
- SI CC50/EC50 (rgRSV224 virus; Table 2): >17372

Compound: CC(C)CCn1c(Cn2c(=O)n(C3COC3)c3ccncc32)cc2nc(Cl)ccc21 [Compound P34]
- EC50 (rgRSV224 virus; [3]): 35 nM
- SI CC50/EC50 (rgRSV224 virus; Table 2): >2856

Compound: CS(=O)(=O)CCCn1c(Cn2c(=O)n(C3COC3)c3ccncc32)cc2nc(Cl)ccc21 [Compound P36]
- EC50 (rgRSV224 virus; [3]): 6.81 nM
- SI CC50/EC50 (rgRSV224 virus; Table 2): >14674

Compound: CS(=O)(=O)CCCn1c(Cn2c(=O)n(C3CC3)c3ccc(F)cc32)cc2nc(Cl)ccc21 [Compound P37]
- EC50 (rgRSV224 virus; [3]): 22.3 nM
- SI CC50/EC50 (rgRSV224 virus; Table 2): >4479

Compound: CC(C)CCn1c(Cn2c(=O)n(C3CC3)c3ccc(F)cc32)cc2nc(Cl)ccc21 [Compound P38]
- EC50 (rgRSV224 virus; [3]): 32.8 nM
- SI CC50/EC50 (rgRSV224 virus; Table 2): 1510

Compound: CC(C)CCn1c(Cn2c(=O)n(C3CC3)c3ccccc32)cc2nc(Cl)ccc21 [Compound P39]
- EC50 (rgRSV224 virus; [3]): 129 nM
- SI CC50/EC50 (rgRSV224 virus; Table 2): >388

Compound: O=c1n(Cc2cc3nc(Cl)ccc3n2CCCC(F)(F)F)c2cnccc2n1C1CC1 [Compound P40]
- EC50 (rgRSV224 virus; [3]): 2.7 nM
- SI CC50/EC50 (rgRSV224 virus; Table 2): >37045

Compound: O=c1n(Cc2cc3nc(Cl)ccc3n2CCCCF)c2cnccc2n1C1CC1 [Compound P42, 3-((5-chloro-1-(4-fluorobutyl)-1H-pyrrolo[3,2-b]pyridin-2-yl)methyl)-1-cyclopropyl-1H-imidazo[4,5-c]pyridin-2(3H)-one]
- SI CC50/EC50 (rgRSV224 virus; Table 2): 17031
- EC50 (rgRSV224 virus; [2]): 2.84 nM

Compound: O=c1n(Cc2cc3nc(Cl)ccc3n2CCCC(F)(F)F)c2ccccc2n1C1CC1 [Compound P43]
- EC50 (rgRSV224 virus; [3]): 69.2 nM
- SI CC50/EC50 (rgRSV224 virus; Table 2): 1291

Compound: O=c1n(Cc2cc3nc(Cl)ccc3n2CCCCF)c2cnc(Cl)cc2n1C1CC1 [Compound P44]
- SI CC50/EC50 (rgRSV224 virus; Table 3): 620
- EC50 (rgRSV224 virus; [2]): 17.9 nM

Compound: O=c1n(Cc2cc3ncccc3n2CCCCF)c2cnccc2n1C1CC1 [Compound P45]
- EC50 (rgRSV224 virus; [3]): 42.9 nM
- SI CC50/EC50 (rgRSV224 virus; Table 2): >2332

Compound: O=c1n(Cc2cc3nc(C(F)(F)F)ccc3n2CCCCF)c2cnccc2n1C1CC1 [Compound P46]
- EC50 (rgRSV224 virus; [3]): 132 nM
- SI CC50/EC50 (rgRSV224 virus; Table 2): >755

Compound: O=c1n(Cc2cc3nc(Cl)ccc3n2CCCCF)c2cc(F)ccc2n1CC(F)(F)F [Compound P47]
- EC50 (rgRSV224 virus; [3]): 138 nM
- SI CC50/EC50 (rgRSV224 virus; Table 2): >720

Compound: O=c1n(Cc2cc3nc(Cl)ccc3n2CCCCF)c2cnccc2n1CC(F)(F)F [Compound P48]
- EC50 (rgRSV224 virus; [3]): 7.36 nM
- SI CC50/EC50 (rgRSV224 virus; Table 2): 10490

Compound: O=c1n(Cc2cc3nc(Cl)ccc3n2CCCC(F)(F)F)c2cnccc2n1CC(F)(F)F [Compound P49]
- EC50 (rgRSV224 virus; [3]): 2.1 nM
- SI CC50/EC50 (rgRSV224 virus; Table 2): >34306

Compound: O=c1n(Cc2cc3nc(Cl)ccc3n2CCCCO)c2cnccc2n1CC(F)(F)F [Compound P50]
- EC50 (rgRSV224 virus; [3]): 10.1 nM
- SI CC50/EC50 (rgRSV224 virus; Table 2): >4946

Compound: CS(=O)(=O)CCCn1c(Cn2c(=O)n(CC(F)(F)F)c3ccncc32)cc2nc(Cl)ccc21 [Compound P52]
- EC50 (rgRSV224 virus; [3]): 0.84 nM
- SI CC50/EC50 (rgRSV224 virus; Table 2): >119028

Compound: N#CCCCn1c(Cn2c(=O)n(C3CC3)c3ccncc32)cc2nc(Cl)ccc21 [Compound P53]
- EC50 (rgRSV224 virus; [3]): 15.8 nM
- SI CC50/EC50 (rgRSV224 virus; Table 2): >6232
